From patent US10865191B2, “Heterocyclic compounds useful as modulators of TNF alpha” (BRISTOL-MYERS SQUIBB COMPANY, priority 2015, dated 2020)

target: TNFα (Homo sapiens, UniProt P01375); test: TNF induced HEK-Blue assay (NF-kB-driven secreted alkaline phosphatase reporter); format: cell-based; conditions: TNF induced HEK-Blue assay IC50 value, TNFα 0.5 ng/mL, HEK-Blue-CD40L cells, 18 h
Method in brief: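 HEK-Blue-CD40L cells (NF-kB-driven SEAP reporter), 20,000/well, added after 30 min pre-incubation of compound (0.004–25 μM final) with TNFα 0.5 ng/mL final at 37 °C; 18 h incubation. SEAP read with QUANTI-Blue at 620 nm; IC50 from 4-parameter logistic fit, normalized to unstimulated and stimulated DMSO controls.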

Sequence of TNFα (P01375 77-233 limits assumed): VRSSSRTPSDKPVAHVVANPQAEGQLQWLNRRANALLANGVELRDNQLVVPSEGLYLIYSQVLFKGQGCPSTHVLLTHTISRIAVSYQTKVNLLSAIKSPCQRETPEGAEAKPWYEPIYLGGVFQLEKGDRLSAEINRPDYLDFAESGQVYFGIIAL

Compound | IC50 [µM]
CC(Nc1c(Cl)cnc2ccc(-c3cnc(C(C)(C)O)nc3)cc12)c1cccc(F)c1 (racemic) [Example 155, 2-(5-(3-chloro-4-((1-(3-fluorophenyl)ethyl)amino)quinolin-6-yl)pyrimidin-2-yl)propan-2-ol] | 1 to 10

same assay, conditions: TNFα 0.5 ng/mL, HEK-Blue-CD40L cells, 18 h; read-out: TNF induced HEK-Blue assay IC50 value

Compound | IC50 [µM]
Cc1ccc(F)c([C@@H](C)Nc2c(Cl)c(C)nc3ccc(-c4cnc(C(C)(C)O)nc4)cc23)c1 [Example 334, (R)-2-(5-(3-chloro-4-((1-(2-fluoro-5-methylphenyl)ethyl)amino)-2-methylquinolin-6-yl)pyrimidin-2-yl)propan-2-ol] | < 1
CC(Nc1c(Cl)cnc2cc(F)c(-c3ccc(C(O)C4CC4)cc3)cc12)c1ccccc1F (centres unmarked) [Example 262, (4-(3-chloro-7-fluoro-4-((1-(2-fluorophenyl)ethyl)amino)quinolin-6-yl)phenyl)(cyclopropyl)methanol] | 1 to 10
CC(Nc1c(Cl)cnc2cc(F)c(-c3cnc(N4CCN(C(=O)[C@H](N)CC(=O)O)CC4)nc3)cc12)c1ccccc1F (single isomer, unassigned) [Example 607] | < 1
CC(Nc1c(Cl)cnc2cc(F)c(-c3ccc(C4COCCN4)cc3)cc12)c1ccccc1F (single isomer, unassigned) [Example 598, 3-chloro-7-fluoro-N-(1-(2-fluorophenyl)ethyl)-6-(4-(morpholin-3-yl)phenyl)quinolin-4-amine] | 1 to 10
Cc1nc2cc(F)c(-c3cnc(C(C)(C)O)nc3)nc2c(N[C@H](C)c2cccc(C(N)=O)c2)c1Cl [Example 580, (R)-3-(1-((3-chloro-7-fluoro-6-(2-(2-hydroxypropan-2-yl)pyrimidin-5-yl)-2-methyl-1,5-naphthyridin-4-yl)amino)ethyl)benzamide] | < 1
C[C@@H](Nc1c(Cl)cnc2ccc(-c3ccc(C(C)(C)O)cc3)cc12)c1cnccn1 [Example 490, (R)-2-(4-(3-chloro-4-((1-(pyrazin-2-yl)ethyl)amino)quinolin-6-yl)phenyl)propan-2-ol] | < 1
CCCCCC(C)Nc1c(Cl)cnc2ccc(-c3cnc(C(C)(C)O)nc3)cc12 (racemic) [Example 139, 2-(5-(3-chloro-4-(heptan-2-ylamino)quinolin-6-yl)pyrimidin-2-yl) propan-2-ol] | < 1
C[C@@H](Nc1c(Cl)cnc2ccc(-c3cnc(C(C)(C)O)nc3)cc12)C1CCCCC1 [Example 58, (R)-2-(5-(3-chloro-4-((1-cyclohexylethyl)amino)quinolin-6-yl)pyrimidin-2-yl)propan-2-ol] | < 1
Cc1nc2ccc(-c3cnc(C(C)(C)O)nc3)cc2c(NC(C)c2ccccc2F)c1Cl (racemic) [Example 218, 2-(5-(3-chloro-4-((1-(2-fluorophenyl)ethyl)amino)-2-methylquinolin-6-yl)pyrimidin-2-yl)propan-2-ol] | < 1
Cc1nc2cc(F)c(-c3cnc(C(C)(C)O)nc3)nc2c(N[C@H](C)c2cccc(CO)c2)c1Cl [Example 578, (R)-2-(5-(7-chloro-3-fluoro-8-((1-(3-(hydroxymethyl)phenyl)ethyl)amino)-6-methyl-1,5-naphthyridin-2-yl)pyrimidin-2-yl) propan-2-ol] | < 1
Cc1nc2ccc(-c3cnc(C(C)(C)O)nc3)cc2c(N[C@H](C)c2cc(CC(=O)O)ccc2F)c1Cl [Example 436, (R)-2-(3-(1-((3-chloro-6-(2-(2-hydroxypropan-2-yl)pyrimidin-5-yl)-2-methylquinolin-4-yl)amino)ethyl)-4-fluorophenyl)acetic acid] | < 1
C=Cc1ccc(F)c([C@@H](Nc2c(Cl)cnc3cc(F)c(-c4cnc(C(C)(C)O)nc4)nc23)C(F)F)c1 [Example 215, (R)-2-(5-(7-chloro-8-((2,2-difluoro-1-(2-fluoro-5-vinylphenyl)ethyl)amino)-3-fluoro-1,5-naphthyridin-2-yl)pyrimidin-2-yl)propan-2-ol] | < 1
Cc1nc2ccc(-c3ccc(C(C)(C)O)cc3)cc2c(N[C@H](C)c2ccccc2F)c1Cl [Example 500, (R)-2-(4-(3-chloro-4-((1-(2-fluorophenyl)ethyl)amino)-2-methylquinolin-6-yl)phenyl)propan-2-ol] | < 1
C[C@@H](Nc1c(Cl)cnc2ccc(-c3ccc(N4CCN(CC(=O)O)C(=O)C4)nc3)cc12)c1ccccc1F [Example 81, (R)-2-(4-(5-(3-chloro-4-((1-(2-fluorophenyl)ethyl)amino)quinolin-6-yl)pyridin-2-yl)-2-oxopiperazin-1-yl)acetic acid] | 1 to 10
Cc1nc2ccc(-c3cnc(C(C)(C)O)nc3)cc2c(NC(C)c2ccccc2F)c1F (racemic) [Example 159, 2-(5-(3-fluoro-4-((1-(2-fluorophenyl)ethyl)amino)-2-methylquinolin-6-yl)pyrimidin-2-yl)propan-2-ol] | 10 to 25
CC(Nc1c(Cl)cnc2cc(F)c(-c3ccc(C(O)CO)cc3)cc12)c1ccccc1F (centres unmarked) [Example 290, 1-(4-(3-chloro-7-fluoro-4-((1-(2-fluorophenyl)ethyl)amino)quinolin-6-yl)phenyl)ethane-1,2-diol] | < 1

Compound | IC50 [µM]
C[C@@H](Nc1c(Cl)cnc2ccccc12)c1cc(OCCCO)ccc1F [Example 458, (R)-3-(3-(1-((3-chloroquinolin-4-yl)amino)ethyl)-4-fluorophenoxy)propan-1-ol] | 1 to 10
C[C@@H](Nc1c(Cl)cnc2ccc(-c3cnc(C(C)(C)O)nc3)cc12)c1cc(Cl)ncc1F [Example 53, (R)-2-(5-(3-chloro-4-((1-(2-chloro-5-fluoropyridin-4-yl)ethyl)amino)quinolin-6-yl)pyrimidin-2-yl)propan-2-ol] | 1 to 10
C[C@@H](Nc1c(Cl)cnc2ccc(-c3ccc(C4(NS(C)(=O)=O)CCC4)cc3)cc12)c1ccccc1F [Example 111, (R)—N-(1-(4-(3-chloro-4-((1-(2-fluorophenyl)ethyl)amino)quinolin-6-yl)phenyl)cyclobutyl)methanesulfonamide] | 10 to 25
CC(Nc1c(Cl)cnc2cc(F)c(-c3ccc(C(O)CN4CCOCC4)cc3)cc12)c1ccccc1F (centres unmarked) [Example 286, 1-(4-(3-chloro-7-fluoro-4-((1-(2-fluorophenyl)ethyl)amino)quinolin-6-yl)phenyl)-2-morpholinoethan-1-ol] | < 1
C[C@@H](Nc1c(Cl)cnc2ccc(-c3cnc(C(C)(C)O)nc3)cc12)c1cc(N2CCCC2=O)ccc1F [Example 362, (R)-1-(3-(1-((3-chloro-6-(2-(2-hydroxypropan-2-yl)pyrimidin-5-yl)quinolin-4-yl)amino)ethyl)-4-fluorophenyl)pyrrolidin-2-one] | < 1
Cc1nc2cc(F)c(-c3cnc(N4CCNC(=O)C4)nc3)cc2c(N[C@H](C)c2cc(C#N)ccc2F)c1Cl [Example 561, (R)-3-(1-((3-chloro-7-fluoro-2-methyl-6-(2-(3-oxopiperazin-1-yl)pyrimidin-5-yl)quinolin-4-yl)amino)ethyl)-4-fluorobenzonitrile] | < 1
CC(C)(O)c1ncc(-c2ccc3ncc(Cl)c(NC(CC(F)(F)F)c4ccccc4)c3c2)cn1 (racemic) [Example 165, 2-(5-(3-chloro-4-((3,3,3-trifluoro-1-phenylpropyl)amino)quinolin-6-yl)pyrimidin-2-yl)propan-2-ol] | < 1
CCOC(=O)c1nc2ccc(-c3cnc(C(C)(C)O)nc3)cc2c(N[C@H](C)c2cc(C#N)ccc2F)c1Cl [Example 384, ethyl (R)-3-chloro-4-((1-(5-cyano-2-fluorophenyl)ethyl)amino)-6-(2-(2-hydroxypropan-2-yl)pyrimidin-5-yl)quinoline-2-carboxylate] | 1 to 10
C[C@@H](Nc1c(Cl)cnc2ccc(-c3cnc(C(C)(C)O)nc3)cc12)c1cc(-c2cncnc2)ccc1F [Example 340, (R)-2-(5-(3-chloro-4-((1-(2-fluoro-5-(pyrimidin-5-yl)phenyl)ethyl)amino)quinolin-6-yl)pyrimidin-2-yl) propan-2-ol] | < 1
Cc1ccc(C)c(Nc2c(Cl)c(N)nc3ccc(-c4cnc(NCCO)nc4)cc23)c1 [Example 70, 2-((5-(2-amino-3-chloro-4-((2,5-dimethylphenyl)amino)quinolin-6-yl)pyrimidin-2-yl)amino)ethan-1-ol] | < 1
COC(=O)CCS(=O)(=O)c1ccc(F)c([C@@H](C)Nc2c(Cl)cnc3ccc(-c4cnc(C(C)(C)O)nc4)cc23)c1 [Example 427, Methyl (R)-3-((3-(1-((3-chloro-6-(2-(2-hydroxypropan-2-yl)pyrimidin-5-yl)quinolin-4-yl)amino)ethyl)-4-fluorophenyl)sulfonyl)propanoate] | 1 to 10
C[C@@H](Nc1c(Cl)cnc2ccccc12)c1cc(-c2cnn(CC(C)(C)O)c2)ccc1F [Example 465, (R)-1-(4-(3-(1-((3-chloroquinolin-4-yl)amino)ethyl)-4-fluorophenyl)-1H-pyrazol-1-yl)-2-methylpropan-2-ol] | 1 to 10
Cc1nc2cc(F)c(-c3cnc(C(C)(C)O)nc3)nc2c(N[C@H](C)c2cc(CO)ccc2F)c1Cl [Example 577, (R)-2-(5-(7-chloro-3-fluoro-8-((1-(2-fluoro-5-(hydroxymethyl)phenyl)ethyl)amino)-6-methyl-1,5-naphthyridin-2-yl)pyrimidin-2-yl)propan-2-ol] | < 1
Cc1ccc(C)c(Nc2c(F)c(C)nc3ccc(-c4cnc(C(C)(C)O)nc4)cc23)c1 [Example 183, 2-(5-(4-((2,5-dimethylphenyl)amino)-3-fluoro-2-methylquinolin-6-yl)pyrimidin-2-yl)propan-2-ol] | < 1
CC(Nc1c(Cl)cnc2ccc(-c3cnc(C(C)(C)O)nc3)cc12)c1ccc(C(F)(F)F)cc1 (racemic) [Example 150, 2-(5-(3-chloro-4-((1-(4-(trifluoromethyl)phenyl)ethyl)amino)quinolin-6-yl)pyrimidin-2-yl)propan-2-ol] | 10 to 25
